Values of other authors in paper PMC4198065 (ACS Chemical Neuroscience, 2014).

What was measured:
food intake in mice = details: effect lasting up to 24 h
[1] = test system: food consumption and body weight in rats; details: ICV

In the case of “AGRP: endogenous antagonist of the MC3R and MC4R (SSRRCVRLHESCLGQQVPCCDPCATCYCRFFNAFCYCRKLGTAMNPCSRT; UniProt O00253 83-132, looked up)”, the “food intake after central administration” value (food intake in mice) is listed as “robustly increased food intake”.

In the case of “Ac-Nle-c[Asp-His-DPhe-Arg-Trp-Lys]-NH2 (sidechain bridge or staple) [MTII]”, the “48 h food consumption” value ([1]; 1.0 nmol dose) is given as “reduced 48 h food consumption” and the “body weight post treatment” value ([1]; at 24 and 48 h (0.1 and 1.0 nmol doses, respectively)) is given as “reduced body weight at 24 and 48 h”.

In the case of “Ac-RRWWRF-NH2 [AST789-13, Ac-RRWWRF-NH2]”, the “half-life in human serum” value is listed as 1.5 h.
